Values after ≈ are worked out from the molar mass of the structure shown. Where two headings read alike, the source gives them in different places.
Legend:
[1] = tested on: BXPC-3; experiment: Cytotoxicity, pancreas-a BXPC-3; type: cell-based, human; conditions: for GI50: Homo sapiens, BXPC-3, BXPC-3
[2] = tested on: MCF-7; experiment: Cytotoxicity, breast MCF-7; type: cell-based, human; conditions: for GI50: Homo sapiens, MCF7
[3] = tested on: SF-268; experiment: Cytotoxicity, CNS SF-268; type: cell-based, human; conditions: for GI50: Homo sapiens, SF-268, SF-268, read-out: CNS SF-268 GI50
[4] = tested on: DU-145; experiment: Cytotoxicity, prostate DU-145; type: cell-based, human; conditions: for GI50: Homo sapiens, DU-145, DU-145
[5] = tested on: NCI-H460; experiment: Cytotoxicity, lung-NSC NCI-H460; type: cell-based, human; conditions: for GI50: Homo sapiens, NCI-H460, NCI-H460, read-out: Lung-NSC NCI-H460 GI50
[6] = tested on: KM201.2; experiment: Cytotoxicity, colon KM201.2; type: cell-based, human; conditions: KM201.2; for GI50: Homo sapiens, read-out: Colon KM201.2 GI50
[7] = tested on: P-388 and human tumor cell lines; experiment: Cytotoxicity, summary over P-388 and human tumor cell lines; type: cell-based
[8] = tested on: Enterobacter cloacae; experiment: Antimicrobial broth microdilution, MIC; type: cell-based; conditions: for MIC: read-out: Minimum inhibitory concentration
Description: (§1) Stilbene production has been correlated with the resistance of grape leaves to fungal infection.

[9] = tested on: Candida albicans; experiment: Antimicrobial broth microdilution, MIC; type: cell-based; conditions: for MIC: read-out: Minimum inhibitory concentration
Description: as §1

[10] = tested on: Stenotrophomonas maltophilia; experiment: Antimicrobial broth microdilution, MIC; type: cell-based; conditions: for MIC: read-out: Minimum inhibitory concentration
Description: as §1

[11] = tested on: Staphylococcus aureus; experiment: Antimicrobial broth microdilution, MIC; type: cell-based; conditions: for MIC: read-out: Minimum inhibitory concentration
Description: as §1

[12] = tested on: Streptococcus pneumoniae; experiment: Antimicrobial broth microdilution, MIC; type: cell-based; conditions: for MIC: read-out: Minimum inhibitory concentration
Description: as §1

[13] = tested on: Enterococcus faecalis; experiment: Antimicrobial broth microdilution, MIC; type: cell-based; conditions: for MIC: read-out: Minimum inhibitory concentration
Description: as §1

[14] = tested on: Micrococcus luteus; experiment: Antimicrobial broth microdilution, MIC; type: cell-based; conditions: for MIC: read-out: Minimum inhibitory concentration
Description: as §1

[15] = tested on: Escherichla coli; experiment: Antimicrobial broth microdilution, MIC; type: cell-based; conditions: Escherichla coli; for MIC: read-out: Minimum inhibitory concentration
Description: as §1

[16] = tested on: Cryptococcus neoformans; experiment: Antimicrobial broth microdilution, MIC; type: cell-based; conditions: for MIC: read-out: Minimum inhibitory concentration
Description: as §1

[17] = tested on: Neisseria gonorrhoeae; experiment: Antimicrobial broth microdilution, MIC; type: cell-based; conditions: Neisseria gonorrhoeae; for MIC: read-out: Minimum inhibitory concentration
Description: as §1

Compound	GI50 [1]	GI50 [2]	GI50 [3]	GI50 [4]	GI50 [5]	GI50 [6]	Cytotoxicity against cancer cell lines, comparison in words [7]	Pancreas-a BXPC-3 GI50 [1]	CNS SF-268 GI50 [3]	Prostate DU-145 GI50 [4]	Lung-NSC NCI-H460 GI50 [5]	MIC [8]	MIC [9]	MIC [10]	MIC [11]	MIC [12]	MIC ([13]; first line (r12))	MIC ([13]; second line (r15))	MIC [14]	MIC [15]	other results
Oc1ccc(/C=C\c2cc(O)cc(O)c2)cc1 [Compound 1b, cis-Resveratrol]	15.5 µg/mL (≈ 67.9 µM)	14.8 µg/mL (≈ 64.8 µM)	5 µg/mL (≈ 21.9 µM)	10.2 µg/mL (≈ 44.7 µM)	13.2 µg/mL (≈ 57.8 µM)	22 µg/mL (≈ 96.4 µM)	slightly less inhibitory effects on the cancer cell lines tested than did the trans-isomer	–	–	–	–	–	–	–	–	–	–	–	–	–	–
COc1ccc(C=Cc2cc(OC)cc(OC)c2)cc1 [Compound 4b, 3,4′,5-trimethoxystilbene]	–	–	–	–	–	–	superior in activity to resveratrol (1)	0.35 µg/mL	0.56 µg/mL	1.5 µg/mL	0.62 µg/mL	–	–	–	–	–	–	–	–	–	–
COc1cc(/C=C/c2ccc(O)cc2)cc(OC)c1 [Compound 14d, (E)-3,5-dimethoxy-4′-hydroxy-stilbene]	6.5 µg/mL (≈ 25.4 µM)	2.3 µg/mL (≈ 8.97 µM)	4.3 µg/mL (≈ 16.8 µM)	2.7 µg/mL (≈ 10.5 µM)	2.7 µg/mL (≈ 10.5 µM)	3.4 µg/mL (≈ 13.3 µM)	slightly less active than their cis counterparts	–	–	–	–	–	–	–	–	–	–	–	–	–	–
COc1ccc(C=Cc2cc(O)cc(OC)c2)cc1 [Compound 14g, 3-hydroxy-4′,5-dimethoxystilbene]	–	–	–	–	–	–	comparable to that of resveratrol	–	–	–	–	–	–	–	–	–	–	–	–	–	–
COc1ccc(C=Cc2cc(O)cc(OC)c2)cc1 [Compound 14h, 3-hydroxy-4′,5-dimethoxystilbene]	–	–	–	–	–	–	slightly less active than their cis counterparts	–	–	–	–	> 64 µg/mL	> 64 µg/mL	> 64 µg/mL	> 64 µg/mL	> 64 µg/mL	> 64 µg/mL	> 64 µg/mL	16 to 64 µg/mL (≈ 62.4 to 250 µM)	> 64 µg/mL	–
COc1ccc(C=Cc2cc(O)cc(O)c2)cc1 [Compound 14l, 3,5-dihydroxy-4′-methoxy-stilbene]	–	–	–	–	–	–	slightly less active than their cis counterparts	6.3 µg/mL	3.1 µg/mL	2.7 µg/mL	6.8 µg/mL	–	–	–	–	–	–	–	–	–	Breast MCF-7 GI50 [2]: 3.4 µg/mL; Colon KM201.2 GI50 [6]: 3.8 µg/mL
COc1cc(/C=C\c2ccccc2)cc(OC)c1OP(=O)(OCc1ccccc1)OCc1ccccc1 [Compound 14m, (Z)-3,5-dimethoxy-4-[O-bis(benzyl)phosphoryl]-stilbene]	–	–	–	–	–	–	–	5.4 µg/mL	38.5 µg/mL	35.6 µg/mL	10.7 µg/mL	–	–	–	–	–	–	–	–	–	Breast MCF-7 GI50 [2]: 9.0 µg/mL; Colon KM201.2 GI50 [6]: 24.7 µg/mL
COc1ccc(C(O)c2cc(OC)cc(OC)c2)cc1 (centres unmarked) [Compound 15a]	–	–	–	–	–	–	–	16.1 µg/mL	23.3 µg/mL	23.2 µg/mL	21.7 µg/mL	–	–	–	–	–	–	–	–	–	Colon KM201.2 GI50 [6]: 21.0 µg/mL
COc1cc(OC)cc(C(O)c2ccc(O)cc2)c1 (centres unmarked) [Compound 15c, 4′-Hydroxy-3,5-dimethoxybenzhydrol]	1.3 µg/mL (≈ 4.99 µM)	2 µg/mL (≈ 7.68 µM)	0.65 µg/mL (≈ 2.5 µM)	5.8 µg/mL (≈ 22.3 µM)	2.3 µg/mL (≈ 8.84 µM)	5.3 µg/mL (≈ 20.4 µM)	–	–	–	–	–	> 64 µg/mL	> 64 µg/mL	> 64 µg/mL	> 64 µg/mL	16 µg/mL (≈ 61.5 µM)	> 64 µg/mL	> 64 µg/mL	> 64 µg/mL	> 64 µg/mL	MIC [16]: > 64 µg/mL; MIC [17]: 2 to 4 µg/mL (≈ 7.68 to 15.4 µM)
COc1cc(OC)cc(C(=O)c2ccc(O)cc2)c1 [Compound 16c]	–	–	–	–	–	–	–	4.0 µg/mL	3.8 µg/mL	4.1 µg/mL	3.0 µg/mL	–	–	–	–	–	–	–	–	–	Minimum inhibitory concentration [8]: * (no inhibition at 64 μg/ml); Minimum inhibitory concentration [9]: * (no inhibition at 64 μg/ml); Minimum inhibitory concentration [10]: * (no inhibition at 64 μg/ml); Minimum inhibitory concentration [11]: * (no inhibition at 64 μg/ml); Minimum inhibitory concentration [16]: * (no inhibition at 64 μg/ml); Minimum inhibitory concentration [12]: 64 µg/mL (≈ 248 µM); Minimum inhibitory concentration ([13]; first line (r12)): * (no inhibition at 64 μg/ml); Minimum inhibitory concentration ([13]; second line (r15)): * (no inhibition at 64 μg/ml); Minimum inhibitory concentration [14]: * (no inhibition at 64 μg/ml); Minimum inhibitory concentration [15]: * (no inhibition at 64 μg/ml); Minimum inhibitory concentration [17]: 32 to 64 µg/mL; Breast MCF-7 GI50 [2]: 2.2 µg/mL; Colon KM201.2 GI50 [6]: 3.6 µg/mL
COc1ccc(C(=O)c2cc(O)cc(O)c2)cc1 [Compound 16e]	–	–	–	–	–	–	–	–	–	–	–	–	–	–	–	–	–	–	–	–	Minimum inhibitory concentration [8]: * (no inhibition at 64 μg/ml); Minimum inhibitory concentration [9]: * (no inhibition at 64 μg/ml); Minimum inhibitory concentration [10]: * (no inhibition at 64 μg/ml); Minimum inhibitory concentration [11]: * (no inhibition at 64 μg/ml); Minimum inhibitory concentration [16]: * (no inhibition at 64 μg/ml); Minimum inhibitory concentration [12]: * (no inhibition at 64 μg/ml); Minimum inhibitory concentration ([13]; first line (r12)): * (no inhibition at 64 μg/ml); Minimum inhibitory concentration ([13]; second line (r15)): * (no inhibition at 64 μg/ml); Minimum inhibitory concentration [14]: * (no inhibition at 64 μg/ml); Minimum inhibitory concentration [15]: * (no inhibition at 64 μg/ml); Minimum inhibitory concentration [17]: * (no inhibition at 64 μg/ml)
O=C(c1ccc(O)cc1)c1cc(O)cc(O)c1 [Compound 16g, 3,4′,5-trihydroxybenzophenone]	20.5 µg/mL (≈ 89 µM)	30.6 µg/mL (≈ 133 µM)	22.3 µg/mL (≈ 96.9 µM)	15 µg/mL (≈ 65.2 µM)	25 µg/mL (≈ 109 µM)	24.5 µg/mL (≈ 106 µM)	–	–	–	–	–	> 64 µg/mL	> 64 µg/mL	> 64 µg/mL	> 64 µg/mL	64 µg/mL (≈ 278 µM)	> 64 µg/mL	> 64 µg/mL	> 64 µg/mL	> 64 µg/mL	MIC [16]: > 64 µg/mL; MIC [17]: > 64 µg/mL
COc1cc(O)cc(C(=O)c2ccc(O)cc2)c1 [Compound 16i, 3,4′-dihydroxy-5-methoxybenzophenone]	21.7 µg/mL (≈ 88.8 µM)	26.8 µg/mL (≈ 110 µM)	26.4 µg/mL (≈ 108 µM)	16.5 µg/mL (≈ 67.6 µM)	12.1 µg/mL (≈ 49.5 µM)	31.6 µg/mL (≈ 129 µM)	–	–	–	–	–	> 64 µg/mL	> 64 µg/mL	> 64 µg/mL	> 64 µg/mL	64 µg/mL (≈ 262 µM)	> 64 µg/mL	> 64 µg/mL	> 64 µg/mL	> 64 µg/mL	MIC [16]: > 64 µg/mL; MIC [17]: 32 µg/mL (≈ 131 µM)
COc1ccc(C(=O)c2cc(O)cc(OC)c2)cc1 [Compound 16k, 4′,5-dimethoxy-3-hydroxybenzophenone]	15 µg/mL (≈ 58.1 µM)	14.2 µg/mL (≈ 55 µM)	13.9 µg/mL (≈ 53.8 µM)	12.6 µg/mL (≈ 48.8 µM)	10.3 µg/mL (≈ 39.9 µM)	16.2 µg/mL (≈ 62.7 µM)	–	–	–	–	–	> 64 µg/mL	> 64 µg/mL	> 64 µg/mL	> 64 µg/mL	32 to 64 µg/mL (≈ 124 to 248 µM)	> 64 µg/mL	> 64 µg/mL	> 64 µg/mL	> 64 µg/mL	MIC [16]: 64 µg/mL (≈ 248 µM); MIC [17]: 16 to 32 µg/mL (≈ 61.9 to 124 µM)
Sodium Resverastatin Phosphate [Compound 14n]	–	–	–	–	–	–	essentially identical to 14c	–	–	–	–	–	–	–	–	–	–	–	–	–	Breast MCF-7 GI50 [2]: 0.73 µg/mL
